Data set [1] in a line: Stability of crystalline form at high temperature, high humidity and illumination (XRPD). It counts as physicochemical. The text has this: The vials in which the samples were placed at high temperature and high humidity were sealed with aluminum foil, and small holes were provided in the aluminum foil to ensure that the samples were sufficiently contacted with atmospheric air. The vial in which the sample was placed under strong light was placed open without sealing with aluminum foil. The samples placed under different conditions were taken and tested for XRPD spectrum on day 5 and day 10.

A short description of data set [2]: Hygroscopicity by dynamic vapor sorption (DVS). It counts as physicochemical. As for the experimental part: Instrument: SMS DVS Advantage;
The DVS parameters are as follows:
Balancing: dm/dt=0.01%/min (shortest: 10 min, longest: 180 min)
drying: drying at 0% RH for 120 min
RH (%) test gradient: 10%
Range of RH (%) test gradient: 0%-90%-0%

Data set [3] in a line: Stability of crystalline form suspended in organic solvent (XRPD). It counts as physicochemical. As to conditions: methanol, ethanol, ethyl acetate, acetone, acetonitrile, tetrahydrofuran, 1,4-dioxane, n-hexane; 20° C. and 50° C., 24 h. The protocol:
After being added with methanol (4 mL), the glass vial was placed on a magnetic stirrer, and the mixture was stirred at 20° C. and 50° C., each for 24 h.
According to the above method, ethanol, ethyl acetate, acetone, acetonitrile, tetrahydrofuran, 1,4-dioxane and n-hexane were used as solvents to conduct parallel tests.

A further data set relates to AKT phosphorylation. The experiment in a line: In vitro test of inhibition on AKT phosphorylation in IgM-stimulated Ramos cells (ELISA). It counts as cell-based. As to conditions: anti-human IgM stimulation. From the text: 5.1 Purpose of experiment: to detect the protein kinase AKT phosphorylation in cells by enzyme-linked immunosorbent assay (ELISA), and evaluate the inhibition of the compound on the AKT phosphorylation by taking the half-inhibitory concentration (IC50) value of the compound as an index. […]
For orientation: ELISA stands for enzyme-linked immunosorbent assay.

As usually defined, the pIC50 is the negative decadic logarithm of the IC50, by convention in mol/L. A lower pIC50 goes with a high IC50.

pIC50: −log10 of the molar value. Counter-ions that a name gives are not always drawn.

Turning to `Cn1c(=O)c(Nc2ccc(N3CCN(C4COC4)CC3)cn2)cc2c(F)c(-c3cc[nH]n3)ccc21` [5-fluoro-1-methyl-3-((5-(4-(oxetan-3-yl)piperazin-1-yl)pyridin-2-yl)amino)-6-(1H-pyrazol-3-yl)quinolin-2(1H)-one hydrochloride], the Crystalline form entry was “Form A crystal” in data set [1] (Day 0 (initial), XRPD); “Form A crystal” in data set [1] (High humidity (room temperature/relative humidity 92.5%, open), Day 5, XRPD); “Form A crystal” in data set [1] (High humidity (room temperature/relative humidity 92.5%, open), Day 10, XRPD); “Form A crystal” in data set [1] (High temperature (60° C., open), Day 5, XRPD); “Form A crystal” in data set [1] (High temperature (60° C., open), Day 10, XRPD); “Form A crystal” in data set [1] (Illumination (total illuminance of 1.2 × 10^6 Lux·hr/near UV energy of 200 w·hr/m^2, open), XRPD). In addition, in data set [1] (overall conclusion), the “Stability under high temperature, high humidity and illumination” value is “good stability”. For the same compound, the “ΔW (DVS weight gain)” value in data set [2] (25° C., RH 0%-90%-0%) stood at 1.371%. Besides, the Hygroscopicity result in data set [2] (25±1° C. and 80±2% RH) is listed as “less hygroscopic”. For the same compound, the “XRPD spectrum after suspension in solvent” value in data set [3] is given as “doesn't change”.

Regarding `Cn1c(=O)c(Nc2ccc(N3CCN(C4COC4)CC3)cn2)cc2c(F)c(-c3cc[nH]n3)ccc21` [Compound of formula I, 5-fluoro-1-methyl-3-((5-(4-(oxetan-3-yl)piperazin-1-yl)pyridin-2-yl)amino)-6-(1H-pyrazol-3-yl)quinolin-2(1H)-one], the pIC50 in the data set with AKT phosphorylation is 6.77.

The record behind these values is US12187710B2, “Salt of Syk inhibitor and crystalline form thereof” (CHIA TAI TIANQING PHARMACEUTICAL GROUP CO., LTD., priority 2018, dated 2025).
